# Test results from patent US20220347188A1, “PROMOTING TISSUE REGENERATION” (FRIEDRICH MIESCHER INSITUTE FOR BIOMEDICAL RESEARCH, priority 2019, published 2022).
# System: intestinal organoids
# Experiment: intestinal organoids cultured from single cells, image-based phenotypic assay
# Type: cell-based
# Excerpt: The present inventors developed a novel image-based phenotypic screening platform in intestinal organoids cultured from single cells to generate a toolbox of compounds shaping the intestinal organoid phenotypic landscape. The compounds were used to infer functional genetic interactions and identify pathways impacting different steps of organoid development. The inventors focused on compounds that improve the regeneration potential of the intestinal epithelium and discovered a novel role for nuclear retinoic acid receptors during organoid damage response and homeostasis both in vitro and in vivo.
# FIG. 1 RXR activity is indispensable for symmetry breaking and cell type balance maintenance Representative images of organoids cultured from single cells in indicated treatment conditions (left), composite maximum intensity projections of confocal z-stacks, nuclei, DAPI, antibody staining for Lysozyme and Aldolase B, scale bar, 50 μm. Violin plots showing distribution of mean Aldolase B staining intensity in control and treated organoids (top right). Box plots inside violin plots show quartile range, whiskers show value interval with excluded outliers, white dots indicate median values, n, number of individual organoids in respective conditions. DMSO, DMSO control, RXRi, 5 μM RXR antagonist. […]
compound,measurement,setting,value
"CC1=C(/C=C/C(C)=C/C=C/C(C)=C/C(=O)O)C(C)(C)CCC1 [atRA, all-trans retinoic acid]",ALDH1A1-positive as well as RARE-positive region,ALDH1A1 antibody staining and RARE reporter gene,expansion
same,absorptive enterocytes in organoids,organoids cultured in presence of an RXR agonist and atRA,increase in absorptive enterocytes
